Converted amounts (≈) assume the structure as drawn. Read-outs that look alike come from different tables or passages of the source.
Assays:
[1] = system: pqsA promoter (PA14 PpqsA-GFPASV); assay: pqsA-GFP reporter expression; format: cell-based, Pseudomonas aeruginosa; details: Pseudomonas aeruginosa
PA14 AT/P cells = assay: AT/P cells formation assay in PA14; format: cell-based, Pseudomonas aeruginosa; details: Pseudomonas aeruginosa, PA14, 24 h, read-out: inhibition of AT/P cells formation
[2] = system: mvfR mutant constitutively expressing the pqsABCDE operon; format: cell-based; details: Pseudomonas aeruginosa, control about 100, single replicates (Figure 4a)
MvfR protein (MvfRC87) = target: T1, MvfR protein (MvfRC87) (Pseudomonas aeruginosa, UniProt Q9I4X0); format: binding; details: SPR
T1 construct: The MvfRC87 protein purified as in Xiao et. al., 2006; made in house
In short: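 MvfRC87 amine-coupled to a CM7 chip (3000–5000 RU) and binding measured by SPR. Double-reference-corrected responses 5 s before end of association plotted against concentration, for inhibitor alone and with native ligand PQS, compared with responses calculated for different binding sites.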

[3] = Solubility in iPBS pH 7.4 by HPLC; format: physicochemical; details: isotonic phosphate buffer (iPBS), aqueous with cosolvent or surfactant or cyclodextrin, kinetic from dmso stock; iPBS pH 7.4, HPLC; read-out: Solubility (M) in PBS
In short: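 Compounds from 10 mM DMSO stock shaken 4 h at room temperature in iPBS pH 7.4 (10 mM PBS, 2.7 mM KCl, 140 mM NaCl, 0.05% Tween), then filtered. Concentration measured by HPLC-UV against a known standard solution; solubility given as ratio of compound in test solution to standard.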

[4] = system: pyocyanin production in PA14; assay: Pyocyanin production assay; details: Pseudomonas aeruginosa
[5] = system: 16 MDR P. aeruginosa clinical isolates; assay: Pyocyanin production in MDR clinical isolates; details: Pseudomonas aeruginosa, 18 h, Control about 100, replicates
ΔmvfR biofilm = assay: Biofilm formation of ΔmvfR mutant (off-target); details: Pseudomonas aeruginosa, PA14, 24 h, read-out: Biofilm formation, ΔmvfR + compound; PA14 about 100; single replicates (Figure 4c)
Protocol: Biofilm was grown in the 96-well microtiter plate at 37 °C for 24 h containing M63 minimal media in the presence of 10 µM of the compounds or vehicle. The biofilm grown with the vehicle was considered as a control. The percentage value was calculated in comparison to the PA14 control. a–c Data represent at least n = 3, each dot on the graph represents one biological replicate. The number of biological replicates for each compound and strain is depicted in the graph. The error bars denote ±SEM.
The overnight grown starter culture was diluted 1:1000 in 5 mL LB media in a glass tube and was incubated at 37 °C and 200 rpm in an incubator shaker until the culture reached an OD600nm 3.0. The culture was then diluted at 1:100 in M63 minimal media supplemented with 0.2% glucose, 0.5% Casamino Acids, and 1 mM MgSO4. Initiation of the Biofilm formation was performed in the 96 well plates; 200 µL of diluted culture was added in the wells with (10 µM) or without compounds. The cultures were allowed to grow at 37 °C in static conditions for 24 hours. Thereafter, planktonic culture was removed from the wells, and wells were washed three times with distilled water (DW). Biofilm was stained with 0.1% crystal violet and incubated for 15 min at room temperature (RT). Access dye was removed from the wells and washed off three times with DW, and 200 µL ethanol: acetone (80:20) was added to the wells. The plate was incubated for 30 min at RT, and the OD was measured by spectrophotometry at 570 nm in the infinite F200 plate reader using the Magellan software (Tecan, Switzerland). Percent biofilm formation was calculated in comparison to PA14 culture that was grown in the absence of compounds.

[6] = system: PA14 isogenic mutant ΔmvfR AT/P cells; assay: AT/P cell formation in ΔmvfR mutant (off-target); details: Pseudomonas aeruginosa, PA14, 24 h, read-out: AT/P cell formation, ΔmvfR + compound; PA14 about 100; single replicates (Figure 4b)
[7] = system: MvfR-regulated small molecules in PA14; assay: Production of HAQs, 2-AA, DHQ and AA in PA14 cultures (LC-MS); details: Pseudomonas aeruginosa
Protocol: The HAQs HHQ, PQS, HQNO, and non-HAQs: 2-AA and DHQ produced by PA14 cells were quantified in the presence of NAMs. The overnight grown starter culture was diluted 1:100 in 5 mL LB media in a glass tube and was allowed to grow in the presence (50 µM) or absence of compound at 37 °C and 200 rpm in an incubator shaker until OD600 was 3. Bacterial cultures were subsequently mixed 1:1 (400 μL: 400 μL) with 100% methanol containing 20 ppm (20 μg mL^−1) of tetradeutero-PQS (PQS-D4) and 10 ppm of tetradeutero-HHQ (HHQ-D4) in a 1.5 mL Eppendorf tube. The mixture was vortexed for 5 seconds and spun down for 5 minutes at 12,000 x g. A 700 μL aliquot of the supernatant was removed and stored in glass vials at −20 °C until further liquid chromatography-mass spectrophotometry (LC/MS) analysis as previously described in Lepine et al., 2003[66]. LC/MC analysis was performed using a Micromass Quattro II triple quadrupole mass spectrometer (Micromass Canada, Pointe-Claire, Canada) in positive electrospray ionization mode, interfaced to an HP1100 HPLC equipped with a 4.5 × 150 mm reverse-phase C8 column.
GraphPad Prism 9.2.0 software was used to plot the IC50 curve against the percent inhibition of these small molecules’ production at each concentration.

T1 sequence (Q9I4X0 87-332): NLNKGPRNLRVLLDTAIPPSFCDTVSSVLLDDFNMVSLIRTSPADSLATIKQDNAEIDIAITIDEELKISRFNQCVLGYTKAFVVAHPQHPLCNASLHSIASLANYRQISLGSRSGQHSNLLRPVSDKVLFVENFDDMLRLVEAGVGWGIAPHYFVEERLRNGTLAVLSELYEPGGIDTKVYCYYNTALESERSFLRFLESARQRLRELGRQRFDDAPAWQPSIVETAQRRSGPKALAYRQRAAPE

Q: Which activity at 50 µM ([1]; PA14, read-out: % Production pqsA-GFP) does the source give for N#Cc1ccc(NC(=O)CC(=O)Nc2ccc(Oc3ccccc3)cc2)cc1 [D57] here?
A: The activity at 50 µM was 4%.

Q: What about the IC50 ([1]; PA14, read-out: IC50 pqsA-GFP expression, PA14, 13 concentrations) of the same molecule?
A: The IC50 was 0.43 µM.

Q: What about the inhibition at 10 µM (PA14 AT/P cells) of the same molecule?
A: Its inhibition at 10 µM is no less than 76%.

Q: And the activity at 50 µM ([2]; read-out: DHQ, ΔmvfR-pqsABCD strain)?
A: Its activity at 50 µM is 98.7%.

Q: And the activity at 50 µM ([2]; read-out: HHQ, ΔmvfR-pqsABCD strain)?
A: Its activity at 50 µM is 92.2%.

Q: What about the activity at 50 µM ([2]; read-out: HQNO, ΔmvfR-pqsABCD strain) of the same molecule?
A: The activity at 50 µM was 96.6%.

Q: What about the activity at 50 µM ([2]; read-out: PQS, ΔmvfR-pqsABCD strain) of the same molecule?
A: The activity at 50 µM was 82.3%.

Q: And the “Response Unit (RU)” value (MvfR protein (MvfRC87); Concentration 1.00E-05 M)?
A: The value was 33.5 RU.

Q: What about the “Response Unit (RU)” value (MvfR protein (MvfRC87); Concentration 1.00E-06 M) of the same molecule?
A: The value was 18 RU.

Q: And the “Response Unit (RU)” value (MvfR protein (MvfRC87); Concentration 1.00E-07 M)?
A: The value was 5.7 RU.

Q: What about the “Response Unit (RU)” value (MvfR protein (MvfRC87); Concentration 1.00E-08 M) of the same molecule?
A: Its value is 1 RU.

Q: What about the “Response Unit (RU)” value (MvfR protein (MvfRC87); Concentration 3.16E-06 M) of the same molecule?
A: The value was 26.4 RU.

Q: And the “Response Unit (RU)” value (MvfR protein (MvfRC87); Concentration 3.16E-07 M)?
A: Its value is 10.4 RU.

Q: And the “Response Unit (RU)” value (MvfR protein (MvfRC87); Concentration 3.16E-08 M)?
A: The value was 2.9 RU.

Q: And the solubility at 4 h [3]?
A: The solubility at 4 h was 7e-06 M (≈ 2.6 µg/mL).

Q: And the activity at 50 µM ([4]; PA14, 18 h, read-out: % Production Pyocyanin)?
A: Its activity at 50 µM is 6%.

Q: And the IC50 ([4]; PA14, read-out: IC50 pyocyanin production)?
A: The IC50 was 0.24 µM.

Q: And the activity at 10 µM ([5]; read-out: Pyocyanin production relative to Control, clinical isolate LGR-4325)?
A: The activity at 10 µM was 11%.

Q: And the activity at 10 µM ([5]; read-out: Pyocyanin production relative to Control, clinical isolate LGR-4326)?
A: Its activity at 10 µM is 17.7%.

Q: What about the activity at 10 µM ([5]; read-out: Pyocyanin production relative to Control, clinical isolate LGR-4327) of the same molecule?
A: The activity at 10 µM was 18.2%.

Q: What about the activity at 10 µM ([5]; read-out: Pyocyanin production relative to Control, clinical isolate LGR-4328) of the same molecule?
A: The activity at 10 µM was 23.1%.

Q: What about the activity at 10 µM ([5]; read-out: Pyocyanin production relative to Control, clinical isolate LGR-4330) of the same molecule?
A: The activity at 10 µM was 41.2%.

Q: And the activity at 10 µM ([5]; read-out: Pyocyanin production relative to Control, clinical isolate LGR-4331 (first section, r117))?
A: The activity at 10 µM was 24.2%.

Q: And the activity at 10 µM ([5]; read-out: Pyocyanin production relative to Control, clinical isolate LGR-4331 (second section, r140))?
A: The activity at 10 µM was 11.3%.

Q: And the activity at 10 µM ([5]; read-out: Pyocyanin production relative to Control, clinical isolate LGR-4333)?
A: Its activity at 10 µM is 13.5%.

Q: What about the activity at 10 µM ([5]; read-out: Pyocyanin production relative to Control, clinical isolate LGR-4343) of the same molecule?
A: The activity at 10 µM was 20.7%.

Q: And the activity at 10 µM ([5]; read-out: Pyocyanin production relative to Control, clinical isolate LGR-4344)?
A: The activity at 10 µM was 23.5%.

Q: And the activity at 10 µM ([5]; read-out: Pyocyanin production relative to Control, clinical isolate LGR-4348)?
A: Its activity at 10 µM is 17.8%.

Q: And the activity at 10 µM ([5]; read-out: Pyocyanin production relative to Control, clinical isolate LGR-4356)?
A: Its activity at 10 µM is 11%.

Q: What about the activity at 10 µM ([5]; read-out: Pyocyanin production relative to Control, clinical isolate LGR-4362) of the same molecule?
A: The activity at 10 µM was 33.9%.

Q: What about the activity at 10 µM ([5]; read-out: Pyocyanin production relative to Control, clinical isolate LGR-4363) of the same molecule?
A: Its activity at 10 µM is 20.9%.

Q: What about the activity at 10 µM ([5]; read-out: Pyocyanin production relative to Control, clinical isolate LGR-4364 (first section, r326)) of the same molecule?
A: Its activity at 10 µM is 21.8%.

Q: And the activity at 10 µM ([5]; read-out: Pyocyanin production relative to Control, clinical isolate LGR-4364 (second section, r349))?
A: Its activity at 10 µM is 27.4%.

Q: And the activity at 10 µM (ΔmvfR biofilm)?
A: Its activity at 10 µM is 23.6%.

Q: And the activity at 10 µM [6]?
A: Its activity at 10 µM is 32%.

Q: And the activity at 50 µM ([7]; PA14, read-out: % Production 2-AA)?
A: The activity at 50 µM was 38%.

Q: And the activity at 50 µM ([7]; PA14, read-out: % Production AA)?
A: The activity at 50 µM was 298%.

Q: And the activity at 50 µM ([7]; PA14, read-out: % Production DHQ)?
A: Its activity at 50 µM is 65%.

Q: What about the activity at 50 µM ([7]; PA14, read-out: % Production HHQ) of the same molecule?
A: The activity at 50 µM was 58%.

Q: And the activity at 50 µM ([7]; PA14, read-out: % Production HQNO)?
A: The activity at 50 µM was 54%.

Q: What about the activity at 50 µM ([7]; PA14, read-out: % Production PQS) of the same molecule?
A: The activity at 50 µM was 36%.

From article PMC9428149, “Tackling recalcitrant Pseudomonas aeruginosa infections in critical illness via anti-virulence monotherapy” (Nature Communications, 2022)
